In patent publication US10738024B2, “Compounds for treatment of angiogenesis-mediated diseases” (Indiana University Research and Technology Corporation, priority 2013, dated 2020):
“Also recorded” adds a separate entry of the source. Like-named read-outs stand apart in the source and are kept apart here.

Legend:
HUVECs = test: ALAMARBLUE proliferation assay in HUVECs; assay type: cell-based, human; conditions: for GI50: 50% growth inhibitory concentration, alamarBlue
Protocol: (§1) Particularly, in a 96-well clear bottom black plate, cells (2,500 cells per well) were seeded in a total volume of 100 μL EGM-2. After 24 hours of incubation of the plate at 37° C. and 5% CO2, a DMSO solution of synthetic cremastranone (1) or SH-11052 (2) was added in the concentration range of 0.5 nM to 500 μM (final DMSO concentration=1%). The plate was then further incubated for 48 hours before adding 11.1 μL of ALAMARBLUE® reagent to each well. Four hours after the addition of ALAMARBLUE®, fluorescence readings with excitation and emission wavelengths of 560 nm and 590 nm, respectively, were taken and the data were analyzed in GraphPad Prism software (v. 6.0). Dose response curves were generated and the GI50 values were calculated using the following equation: Y=100/(1+10^(X−Log GI50)).
(§2) For proliferation assays, cells (2500 per well) were seeded in a 96-well clear bottom black polystyrene plate in a total volume of 100 μL. HUVECs and HRECs were grown in EGM-2 and CSC+ media respectively, while 92-1 and Y79 cells were maintained in RPMI+10% FBS, penicillin/streptomycin and RB medium (IMDM+10% FBS+penicillin/streptomycin+10 μg/mL insulin+55 μM β-mercaptoethanol) respectively. After 24 hours of incubation of the plate at 37° C., the compounds were dissolved in DMSO and added in the concentration range of 500 μM to 0.5 nM. The plate was then incubated at 37° C. and 5% CO2 conditions for 48 hours before adding 11.1 μL of alamar blue reagent for each well. Four hours after the addition of ALAMARBLUE® reagent, fluorescence readings with excitation and emission wavelengths of 560 nm and 590 nm respectively were taken and the data was analyzed in GraphPad Prism software. The dose response curves were generated and the GI50 values were calculated using the equation: Y=100/(1+10^(X−Log GI50)) (Table 1).

[1] = test system: 92-1 uveal melanoma cells; test: ALAMARBLUE proliferation assay in 92-1 uveal melanoma cells; assay type: cell-based; conditions: for GI50: 50% growth inhibitory concentration, 48 hours, alamarBlue
Protocol: as §2

HRECs [2] = test: ALAMARBLUE proliferation assay in HRECs; assay type: cell-based, human; conditions: for GI50: Homo sapiens, HREC; for in vitro anti-proliferative activity in HRECs: result in words, FIGS. 6B, 6D, 14
Protocol: as §1, §2

NF-κB p65 = test: TNF-α induced NF-κB p65 nuclear translocation in HRECs (immunofluorescence); assay type: cell-based, human; conditions: 10 ng/ml TNF-α for 20 minutes
Protocol: Cells (25,000 per coverslip) were seeded onto coverslips coated with Attachment Factor (Cell Systems, Kirkland, Wash., USA) and incubated at 37° C. and 5% CO2 for 24 hours in EGM-2. The cells were starved in 0.1% serum-EBM-2 for 8 hours followed by 0.1% serum-EBM-2 medium for one hour in the presence of different concentrations of SH-11052 (2). The cells were induced with 10 ng/ml TNF-α, a known pro-inflammatory cytokine and inducer of NF-κB, for 20 minutes and fixed with 4% paraformaldehyde solution for 20 minutes at room temperature. Since NF-κB exerts its transcriptional activity in the nucleus, blockade of stimulus-induced nuclear translocation of NF-κB is an indication of NF-κB pathway inhibition.
Cells were quickly washed three times in TBS and permeabilized by incubating with 0.5% Triton X-100 for 10 minutes. The cells were blocked in 10% block solution (DAKO) in TBS plus 1% BSA followed by incubation with an antibody against NF-κB p65 (1:50 dilution). Dylight 488-conjugated goat anti-mouse secondary antibody (1:200 dilution) was used to probe the NF-κB p65 antibody. The coverslips were mounted using Vectashield mounting medium containing DAPI (Vector Labs) for nuclear staining. The cells were imaged using an LSM 700 confocal microscope (Zeiss). […]

[3] = test system: Y-79 retinoblastoma cells; test: ALAMARBLUE proliferation assay in Y-79 retinoblastoma cells; assay type: cell-based; conditions: 50% growth inhibitory concentration, 48 hours
Protocol: as §2

HRECs [4] = test: Matrigel tube formation by HRECs; assay type: cell-based, human; conditions: for tube formation ability of HRECs: compared to DMSO control, concentration not given
Protocol: Matrigel assays were performed as described in Ponce (2001) In vitro matrigel angiogenesis assays, Methods Mol Med 46: 205-209, with slight modifications for the use of HRECs. Briefly, HRECs were starved overnight at 0.5% FBS in EBM-2 and plated on a 96-well plate at a density of 7,500 cells/well over 50 μL of Matrigel high concentration basement membrane. SH-11052 (2) was added at the indicated concentrations in EBM-2+1% FBS. Cells were observed every 2 hours by bright field microscopy at 40× magnification for tube formation. Closed units (polygons) were manually counted at 8 hours post plating and numbers normalized to the DMSO control. Assays were performed in triplicate.
For determining the effect of analog compound SH-11037 (6c) on tube formation, HRECs were plated in 100 μL of EGM-2 containing SH-11037 (6c) (0 nM, 50 nM and 200 nM) dissolved in DMSO in 96-well MatriGel-coated plates for one hour. Wells were photographed after 8 hours and number of polygons (enclosed shapes bordered by tubes) manually counted and expressed as a percentage of the DMSO-only control.

[5] = 50% growth inhibitory concentration, 48 hours, alamarBlue, read-out: GI50 HREC

| Compound | GI50 (HUVECs; 48 hours, listed as 6c (SH-11037), read-out: GI50 HUVEC) [µM] | GI50 (HUVECs; Homo sapiens, HUVEC, 48 h) [µM] | GI50 [1] [µM] | toxicity to a uveal melanoma cell line ([1]; result in words) | GI50 (HRECs [2]; [5]) [µM] | GI50 (HRECs [2]; text of Example 15, FIG. 14, read-out: HREC GI50) [µM] | in vitro anti-proliferative activity in HRECs (HRECs [2]) | nuclear translocation of NF-κB (p65) upon TNF-α stimulation / NF-κB signaling (NF-κB p65; listed as SH-11037 (6c)) | GI50 [3] [µM] | block of HREC tube formation (HRECs [4]; 500 nM, polygons vs DMSO-only control) [%] | tube formation ability of HRECs (HRECs [4]) | in vitro anti-proliferative activity in HUVECs (HUVECs; result in words, FIGS. 6A, 6C) | nuclear translocation of NF-κB (p65) upon TNF-α stimulation / NF-κB signaling (NF-κB p65; listed as SH-11052 (2)) | tube formation ability of HRECs at 140 μM (HRECs [4]; 140 μM, 8 hours) | tube formation ability of HRECs (HRECs [4]; listed as SH-11052 (2)) | tube formation of HRECs at the GI50 value (HRECs [4]; compound at its GI50 value, 8 hours) |
| --- | --- | --- | --- | --- | --- | --- | --- | --- | --- | --- | --- | --- | --- | --- | --- | --- |
| COc1ccc(CC2COc3cc(OC)c(OC)c(OC)c3C2=O)cc1OC(=O)[C@H](Cc1ccccc1)NC(=O)OC(C)(C)C (stereo partly drawn) [Compound 6c, (2S)-2-methoxy-5-((5,6,7-trimethoxy-4-oxochroman-3-yl)methyl)phenyl 2-((tert-butoxycarbonyl)amino)-3-phenylpropanoate] | 0.746 | 1 | 400 | non-toxic | 0.087 | 0.15 | inhibition of proliferation | did not inhibit NF-κB signaling | 12 | 88 | inhibited |  |  |  |  |  |
| COc1ccc(CC2COc3cc(OC)c(O)c(O)c3C2=O)cc1O (single isomer, unassigned) [Compound 2] |  | 18 | 6 |  | 43 |  | demonstrated in vitro anti-proliferative activity |  | 87 |  |  | demonstrated in vitro anti-proliferative activity | blocked NF-κB signaling; also recorded: inhibited | completely abolished | inhibited tube formation; also recorded: significant reduction in their tube formation ability | significant reduction in tube formation |
